Results on two molecules are retold here after publication PMC3307315 (The Journal of Biological Chemistry, 2012).

The subject of assay [1] is 35S-labeled NRF2. In kind it is biochemical. The note with it: HEK293T cell-free extracts.
Assay [2] has as its system HEK293T cells. In words: Cell viability. To be noted: siRNA knockdown, etoposide, MTT (Fig. 2E). In kind it is cell-based.
In assay [3] the test system is NRF2. To be noted: cited from earlier work.
Assay [4] concerns endogenous KEAP1. In words: Streptavidin affinity pulldown of GLUE-WTX and Western blot, endogenous KEAP1. Type of assay: cell-based. (In western blotting, separated proteins are transferred to a membrane and probed.)

Take “NRF2: transcription factor NF-E2-related factor-2”: the “half-life of exogenous NRF2 in cell extracts” value in assay [1] is recorded as approximately 6 h. Also, in assay [2], the “resistance to apoptosis-inducing reagents (conclusion)” value is “promote resistance to apoptotic inducing reagents”. The “half-life of exogenous and endogenous NRF2 in intact cells” value in assay [3] is approximately 0.333 h.

B1: GLUE-WTX: N-terminal streptavidin-binding protein, calmodulin-binding protein, the hemagglutinin epitope (HA), and WTX (protein, UniProt Q5JTC6 1-1135, looked up)
APC membrane recruitment …: METQKDEAAQAKGAAASGSTREQTAEKGAKNKAAEATEGPTSEPSSSGPGRLKKTAMKLFGGKKGICTLPSFFGGGRSKGSGKGSSKKGLSKSKTHDGLSEAAHGPEDVVSEGTGFSLPLPELPCQFPSSQSAHGALETGSRCKTSVAGATEKAVAEKFPSMPKPKKGLKGFFSSIRRHRKSKVTGAEQSEPGAKGPERVRARPHEHVSSAPQVPCFEETFQAPRKENANPQDAPGPKVSPTPEPSPPATEKMACKDPEKPMEACASAHVQPKPAPEASSLEEPHSPETGEKVVAGEVNPPNGPVGDPLSLLFGDVTSLKSFDSLTGCGDIIAEQDMDSMTDSMASGGQRANRDGTKRSSCLVTYQGGGEEMALPDDDDEEEEEEEEVELEEEEEEVKEEEEDDDLEYLWETAQMYPRPNMNLGYHPTTSPGHHGYMLLDPVRSYPGLAPGELLTPQSDQQESAPNSDEGYYDSTTPGFEDDSGEALGLVRRDCLPRDSYSGDALYEFYEPDDSLENSPPGDDCLYDLHGRSSEMFDPFLNFEPFLSSRPPGAMETEEERLVTIQKQLLYWELRREQLEAQEARAREAHAREAHAREAYTREAYGREAYAREAHTWEAHGREARTREAQAREVRCRETQVRETQARQEKPVLEYQMRPLGPSVMGLAAGVSGTSQISHRGITSAFPTTASSEPDWRDFRPLEKRYEGTCSKKDQSTCLMQLFQSDAMFEPDMQEANFGGSPRRAYPTYSPPEDPEEEEVEKEGNATVSFSQALVEFTSNGNLFSSMSCSSDSDSSFTQNLPELPPMVTFDIADVERDGEGKCEENPEFHNDEDLAASLEAFELGYYHKHAFNNYHSRFYQGLPWGVSSLPRYLGLPGLHPRPPPAAMALNRRSRSLDTAETLEMELSNSHLVQGYLESDELQAQQEDSDEEDEEEEEGEWSRDSPLSLYTEPPGAYDWPAWAPCPLPVGPGPAWISPNQLDRPSSQSPYRQATCCIPPMTMSISLSVPESRAPGESGPQLARPSHLHLPMGPCYNLQPQASQSMRARPRDVLLPVDEPSCSSSSGGFSPSPLPQAKPVGITHGIPQLPRVRPEHPQPQPTHYGPSSLDLSKERAEQGASLATSYSSTAMNGNLAK
modifications: streptavidin-binding, calmodulin-binding peptide and HA tags
For the molecule B1, the “complex with endogenous KEAP1” value in assay [4] is given as “endogenous KEAP1 forms a complex with GLUE-WTX”.
